Test results published in patent publication US6544551B1, “Solid pharmaceutical compositions containing hexedecylphosphocholine (miltefosine) for oral administration in the treatment of leishmaniasis” (priority 1998, dated 2003).

Key:
[1] = system: visceral leishmaniasis (VL); test: Clinical study of oral miltefosine capsules in human visceral leishmaniasis: efficacy; assay type: in vivo
Description: (§1) Miltefosine (MILT, hexadecylphosphocholine, ASTA Medica), an antineoplastic alkylphospholipid, is active in experimental visceral leishmaniasis (VL). To test oral MILT in human VL, 30 male Indian patients from Bihar (age>14 years; 18 of the 30 were antimony (Sb) failures) with splenic aspirate-positive VL were treated in 6 groups of 5 patients each (Groups A-F) for 28 days with escalating doses by oral administration of capsules according to example 1: (A) 50 mg once qod (qod=[…]), (B) 50 mg BID god (BID=twice per day), and then daily using 50 mg (C) BID (100 mg/d), (D) TID (150 mg/d), (E) QID (200 mg/d), and (F) 5×per day (250 mg/d).

[2] = Clinical study of oral miltefosine capsules in human visceral leishmaniasis: tolerability and safety; assay type: in vivo
Description: as §1

[3] = Hygroscopicity (incorporation of water molecules); assay type: physicochemical
[4] = system: experimental visceral leishmaniasis (VL); details: in vivo; cited from earlier work
[5] = Day 14 results in 30 patients, Groups A-F together, oral
[6] = Group A: 50 mg once qod, 28 days, oral
[7] = Group B: 50 mg BID qod, 28 days, oral
[8] = Group D: 50 mg TID (150 mg/d), 28 days, oral

Compound: CCCCCCCCCCCCCCCCOP(=O)([O-])OCC[N+](C)(C)C [Miltefosine, hexadecylphosphocholine]
- patients afebrile by day 7 ([1]; 30 male Indian VL patients, Groups A-F together, oral capsules according to example 1, 28 days, day 7): 16 patients
- all 3 responses (afebrile, decreased spleen size, negative aspirate) = apparent cures, day 14 ([1]; Day 14, Groups A-F together, oral): 21 of 30
- afebrile, day 14 [1, 5]: 25 patients
- decreased spleen size, day 14 [1, 5]: 25 patients
- negative spleenic aspirates (apparent parasitologic cure), day 14 [1, 5]: 28 patients
- apparent cures on day 28 (percent of patients) ([1]; Day 28, 29 patients): 100%
- apparent cures on day 28 ([1]; Day 28, Groups A-F together, including 4 patients with less than 10 days of therapy): 29 of 29
- cure (no relapse, parasite-free bone marrow aspirate) within 6 months, Group A [1, 6]: 2/5
- relapsed within 6 months, Group A [1, 6]: 3/5
- cure (no relapse, parasite-free bone marrow aspirate) within 6 months, Group B [1, 7]: 2/5
- relapsed within 6 months, Group B [1, 7]: 3/5
- cure (no relapse, parasite-free bone marrow aspirate) within 6 months, Group C ([1]; Group C: 50 mg BID (100 mg/d), 28 days, oral): 5/5
- cure (no relapse, parasite-free bone marrow aspirate) within 6 months, Group D [1, 8]: 4/5
- relapsed within 6 months, Group D [1, 8]: 1/5
- cure (no relapse, parasite-free bone marrow aspirate) within 6 months, Group E ([1]; Group E: 50 mg QID (200 mg/d), 28 days, oral): 5/5
- apparent cures relapsed within 6 months ([1]; all groups, within 6 months): 7 of 29
- apparent cure (no relapse, parasite-free bone marrow aspirate) within 6 months ([1]; all groups, within 6 months, 1 patient still in follow up): 21 of 26
- patients with definite cure who had failed prior therapy with antimony ([1]; of the first 21 patients with definite cure): 14 patients
- patients died ([2]; Group F (250 mg/d), died on day 21, drug stopped on day 19, severe vomiting and diarrhea, dehydration, renal failure): 1 patient
- hematologic toxicity ([2]; human, in vivo): no hematologic toxicity
- mild vomiting or diarrhea lasting 3-7 days ([2]; human, in vivo): most patients
- patients removed because of vomiting, Group F ([2]; male, human, in vivo, 28 days): 3
- maximum tolerated daily dose ([2]; oral, human VL patients, 28 days): 200 mg/day
- increase in weight by incorporation of water molecules [3]: up to 30%
- activity in experimental visceral leishmaniasis [4]: active
